# Reference: ChEMBL document CHEMBL4627327, “Antibacterial activity of singly and doubly modified salinomycin derivatives” (Bioorg Med Chem Lett, 2020)
# Calls of active or inactive are those of the source. The calls are words filed in the database; no cut-off is given here.
# How the values were obtained:
# Pseudomonas aeruginosa [1] = assay: Antibacterial activity against Pseudomonas aeruginosa ATCC 15442 assessed as bacterial growth inhibition measured after 18 hrs by CLSI protocol based two-fold serial microdilution method; format: functional, organism-based
# Pseudomonas aeruginosa [2] = assay: Antibacterial activity against Pseudomonas aeruginosa ATCC 27853 assessed as bacterial growth inhibition measured after 18 hrs by CLSI protocol based two-fold serial microdilution method; format: functional, organism-based
# Escherichia coli [3] = assay: Antibacterial activity against Escherichia coli NCTC 8196 assessed as bacterial growth inhibition measured after 18 hrs by CLSI protocol based two-fold serial microdilution method; format: functional, organism-based
# Escherichia coli [4] = assay: Antibacterial activity against Escherichia coli ATCC 25922 assessed as bacterial growth inhibition measured after 18 hrs by CLSI protocol based two-fold serial microdilution method; format: functional, organism-based
# [5] = tested on: Staphylococcus epidermidis; assay: Antibacterial activity against methicillin-resistant Staphylococcus epidermidis isolate 574 assessed as bacterial growth inhibition measured after 18 hrs by CLSI protocol based two-fold serial microdilution method; format: functional; settings: isolate 574, 18 h
# [6] = tested on: Staphylococcus epidermidis; assay: Antibacterial activity against methicillin-resistant Staphylococcus epidermidis isolate 602 assessed as bacterial growth inhibition measured after 18 hrs by CLSI protocol based two-fold serial microdilution method; format: functional; settings: isolate 602, 18 h
# [7] = tested on: Staphylococcus epidermidis; assay: Antibacterial activity against methicillin-resistant Staphylococcus epidermidis isolate 603 assessed as bacterial growth inhibition measured after 18 hrs by CLSI protocol based two-fold serial microdilution method; format: functional; settings: isolate 603, 18 h
# [8] = tested on: Staphylococcus epidermidis; assay: Antibacterial activity against methicillin-resistant Staphylococcus epidermidis isolate 609 assessed as bacterial growth inhibition measured after 18 hrs by CLSI protocol based two-fold serial microdilution method; format: functional; settings: isolate 609, 18 h
# [9] = tested on: Staphylococcus epidermidis; assay: Antibacterial activity against methicillin-resistant Staphylococcus epidermidis isolate 610 assessed as bacterial growth inhibition measured after 18 hrs by CLSI protocol based two-fold serial microdilution method; format: functional; settings: isolate 610, 18 h
# [10] = tested on: Staphylococcus epidermidis; assay: Antibacterial activity against methicillin-resistant Staphylococcus epidermidis isolate 654 assessed as bacterial growth inhibition measured after 18 hrs by CLSI protocol based two-fold serial microdilution method; format: functional; settings: isolate 654, 18 h
# [11] = tested on: Staphylococcus epidermidis; assay: Antibacterial activity against methicillin-resistant Staphylococcus epidermidis isolate 660 assessed as bacterial growth inhibition measured after 18 hrs by CLSI protocol based two-fold serial microdilution method; format: functional; settings: isolate 660, 18 h
# Staphylococcus aureus [12] = assay: Antibacterial activity against methicillin-resistant Staphylococcus aureus isolate 583 assessed as bacterial growth inhibition measured after 18 hrs by CLSI protocol based two-fold serial microdilution method; format: functional; settings: isolate 583, 18 h
# Staphylococcus aureus [13] = assay: Antibacterial activity against methicillin-resistant Staphylococcus aureus isolate 584 assessed as bacterial growth inhibition measured after 18 hrs by CLSI protocol based two-fold serial microdilution method; format: functional; settings: isolate 584, 18 h
# Staphylococcus aureus [14] = assay: Antibacterial activity against methicillin-resistant Staphylococcus aureus isolate 612 assessed as bacterial growth inhibition measured after 18 hrs by CLSI protocol based two-fold serial microdilution method; format: functional; settings: isolate 612, 18 h
# Staphylococcus aureus [15] = assay: Antibacterial activity against methicillin-resistant Staphylococcus aureus isolate 620 assessed as bacterial growth inhibition measured after 18 hrs by CLSI protocol based two-fold serial microdilution method; format: functional; settings: isolate 620, 18 h
# Staphylococcus aureus [16] = assay: Antibacterial activity against methicillin-resistant Staphylococcus aureus isolate 621 assessed as bacterial growth inhibition measured after 18 hrs by CLSI protocol based two-fold serial microdilution method; format: functional; settings: isolate 621, 18 h
# Staphylococcus aureus [17] = assay: Antibacterial activity against methicillin-resistant Staphylococcus aureus isolate 750 assessed as bacterial growth inhibition measured after 18 hrs by CLSI protocol based two-fold serial microdilution method; format: functional; settings: isolate 750, 18 h
# Staphylococcus aureus [18] = assay: Antibacterial activity against methicillin-resistant Staphylococcus aureus isolate 770 assessed as bacterial growth inhibition measured after 18 hrs by CLSI protocol based two-fold serial microdilution method; format: functional; settings: isolate 770, 18 h
# [19] = tested on: Staphylococcus epidermidis; assay: Inhibition of biofilm formation in Staphylococcus epidermidis ATCC 35984 at 1 to 8 ug/ml measured after 24 hrs by crystal violet staining based assay; format: functional, organism-based
# [20] = tested on: Staphylococcus epidermidis; assay: Inhibition of biofilm formation in Staphylococcus epidermidis ATCC 12228 at 1 to 8 ug/ml measured after 24 hrs by crystal violet staining based assay; format: functional, organism-based
# [21] = Genotoxicity in rec negative Bacillus subtilis M45 assessed as diameter of inhibition zone at 256 ug measured after 24 hrs by rec-assay; format: toxicity; settings: in vivo
# [22] = Genotoxicity in rec-positive Bacillus subtilis H17 assessed as diameter of inhibition zone at 256 ug measured after 24 hrs by rec-assay; format: toxicity; settings: in vivo
# Staphylococcus aureus [23] = assay: Antibacterial activity against Staphylococcus aureus NCTC 4163 assessed as bacterial growth inhibition measured after 18 hrs by CLSI protocol based two-fold serial microdilution method; format: functional; settings: NCTC 4163, 18 h
# Staphylococcus aureus [24] = assay: Antibacterial activity against Staphylococcus aureus ATCC 29213 assessed as bacterial growth inhibition measured after 18 hrs by CLSI protocol based two-fold serial microdilution method; format: functional; settings: ATCC 29213, 18 h
# Staphylococcus aureus [25] = assay: Antibacterial activity against Staphylococcus aureus ATCC 25923 assessed as bacterial growth inhibition measured after 18 hrs by CLSI protocol based two-fold serial microdilution method; format: functional; settings: ATCC 25923, 18 h
# Staphylococcus aureus [26] = assay: Antibacterial activity against Staphylococcus aureus ATCC 6358 assessed as bacterial growth inhibition measured after 18 hrs by CLSI protocol based two-fold serial microdilution method; format: functional; settings: ATCC 6358, 18 h
# [27] = tested on: Staphylococcus epidermidis; assay: Antibacterial activity against Staphylococcus epidermidis ATCC 12228 assessed as bacterial growth inhibition measured after 18 hrs by CLSI protocol based two-fold serial microdilution method; format: functional; settings: ATCC 12228, 18 h
# [28] = tested on: Staphylococcus epidermidis; assay: Antibacterial activity against Staphylococcus epidermidis ATCC 35984 assessed as bacterial growth inhibition measured after 18 hrs by CLSI protocol based two-fold serial microdilution method; format: functional; settings: ATCC 35984, 18 h
# Enterococcus hirae = assay: Antibacterial activity against Enterococcus hirae ATCC 10541 assessed as bacterial growth inhibition measured after 18 hrs by CLSI protocol based two-fold serial microdilution method; format: functional; settings: ATCC 10541, 18 h
# Micrococcus luteus = assay: Antibacterial activity against Micrococcus luteus ATCC 9341 assessed as bacterial growth inhibition measured after 18 hrs by CLSI protocol based two-fold serial microdilution method; format: functional; settings: ATCC 9341, 18 h
Structure (SMILES),Activity (Pseudomonas aeruginosa [1]),Activity (Pseudomonas aeruginosa [2]),Activity (Escherichia coli [3]),Activity (Escherichia coli [4]),MIC [5],MIC [6],MIC [7],MIC [8],MIC [9],MIC [10],MIC [11],MIC (Staphylococcus aureus [12]),MIC (Staphylococcus aureus [13]),MIC (Staphylococcus aureus [14]),MIC (Staphylococcus aureus [15]),MIC (Staphylococcus aureus [16]),MIC (Staphylococcus aureus [17]),MIC (Staphylococcus aureus [18]),inhibition [19],inhibition [20],further results
C#CCN[C@@H]1C=C[C@]2(O[C@H]([C@@H](CC)C(=O)[C@@H](C)[C@@H](O)[C@H](C)[C@@H]3O[C@@H]([C@@H](CC)C(=O)O)CC[C@@H]3C)[C@@H](C)C[C@H]2C)O[C@@]12CC[C@@](C)([C@H]1CC[C@](O)(CC)[C@H](C)O1)O2,inactive,inactive,inactive,inactive,1.27 µM,1.27 µM,1.27 µM,1.27 µM,2.54 µM,81.2 µM,40.6 µM,81.2 µM,81.2 µM,1.27 µM,2.54 µM,1.27 µM,1.27 µM,2.54 µM,Active,Active,diameter of the inhibition zone (DIZ) [21]: 34 mm; diameter of the inhibition zone (DIZ) [22]: 30 mm
CC[C@@H](C(=O)[C@@H](C)[C@@H](O)[C@H](C)[C@@H]1O[C@@H]([C@@H](CC)C(=O)ONC(=O)c2ccccc2O)CC[C@@H]1C)[C@H]1O[C@]2(C=C[C@@H](O)[C@]3(CC[C@@](C)([C@H]4CC[C@](O)(CC)[C@H](C)O4)O3)O2)[C@H](C)C[C@@H]1C,inactive,inactive,inactive,inactive,1.13 µM,2.26 µM,2.26 µM,2.26 µM,2.26 µM,4.51 µM,4.51 µM,2.26 µM,4.51 µM,2.26 µM,2.26 µM,2.26 µM,2.26 µM,4.51 µM,Active,Active,MIC (Staphylococcus aureus [23]): 1 to 16 µg/mL; MIC (Staphylococcus aureus [24]): 1 to 16 µg/mL; MIC (Staphylococcus aureus [25]): 1 to 16 µg/mL; MIC (Staphylococcus aureus [26]): 1 to 16 µg/mL; MIC [27]: 1 to 16 µg/mL; MIC [28]: 1 to 16 µg/mL; MIC (Enterococcus hirae): 1 to 16 µg/mL; MIC (Micrococcus luteus): 1 to 16 µg/mL; diameter of the inhibition zone (DIZ) [21]: 30 mm; diameter of the inhibition zone (DIZ) [22]: 24 mm
CC[C@@H](C(=O)[C@@H](C)[C@@H](O)[C@H](C)[C@@H]1O[C@@H]([C@@H](CC)C(=O)ONC(=O)c2ccccc2)CC[C@@H]1C)[C@H]1O[C@]2(C=C[C@@H](O)[C@]3(CC[C@@](C)([C@H]4CC[C@](O)(CC)[C@H](C)O4)O3)O2)[C@H](C)C[C@@H]1C,inactive,inactive,inactive,inactive,2.3 µM,4.6 µM,4.6 µM,4.6 µM,4.6 µM,18.4 µM,18.4 µM,18.4 µM,18.4 µM,4.6 µM,4.6 µM,2.3 µM,4.6 µM,9.19 µM,Active,Active,MIC (Staphylococcus aureus [23]): 1 to 16 µg/mL; MIC (Staphylococcus aureus [24]): 1 to 16 µg/mL; MIC (Staphylococcus aureus [25]): 1 to 16 µg/mL; MIC (Staphylococcus aureus [26]): 1 to 16 µg/mL; MIC [27]: 1 to 16 µg/mL; MIC [28]: 1 to 16 µg/mL; MIC (Enterococcus hirae): 1 to 16 µg/mL; MIC (Micrococcus luteus): 1 to 16 µg/mL; diameter of the inhibition zone (DIZ) [21]: 32 mm; diameter of the inhibition zone (DIZ) [22]: 25 mm
CC[C@@H](C(=O)[C@@H](C)[C@@H](O)[C@H](C)[C@@H]1O[C@@H]([C@@H](CC)C(=O)NCCc2ccc(F)cc2)CC[C@@H]1C)[C@H]1O[C@]2(C=C[C@@H](O)[C@]3(CC[C@@](C)([C@H]4CC[C@](O)(CC)[C@H](C)O4)O3)O2)[C@H](C)C[C@@H]1C,inactive,inactive,inactive,inactive,18.4 µM,36.7 µM,18.4 µM,18.4 µM,36.7 µM,36.7 µM,36.7 µM,18.4 µM,18.4 µM,36.7 µM,18.4 µM,18.4 µM,18.4 µM,36.7 µM,Active,Active,diameter of the inhibition zone (DIZ) [21]: 27 mm; diameter of the inhibition zone (DIZ) [22]: 20 mm
